Data: article PMC2584039 (Molecular Pain, 2008)

Key:
[1] = tested on: TRPA1; design: method as in Petrus et al. (2007); conditions: mouse; ref Petrus et al. (2007); cited from earlier work
[2] = molecular target: T1, human TRPA1 (Homo sapiens, UniProt O75762); test: cell-based
T1 construct: Full length human TRPA1 cDNA was purchased from Origene Technologies; host or cells: HEK-293 (Invitrogen Flp-In system, hygromycin B selection)

[3] = tested on: spinal nerve ligation induced mechanical hypersensitivity; conditions: rat, in vivo

T1 sequence (O75762 whole entry): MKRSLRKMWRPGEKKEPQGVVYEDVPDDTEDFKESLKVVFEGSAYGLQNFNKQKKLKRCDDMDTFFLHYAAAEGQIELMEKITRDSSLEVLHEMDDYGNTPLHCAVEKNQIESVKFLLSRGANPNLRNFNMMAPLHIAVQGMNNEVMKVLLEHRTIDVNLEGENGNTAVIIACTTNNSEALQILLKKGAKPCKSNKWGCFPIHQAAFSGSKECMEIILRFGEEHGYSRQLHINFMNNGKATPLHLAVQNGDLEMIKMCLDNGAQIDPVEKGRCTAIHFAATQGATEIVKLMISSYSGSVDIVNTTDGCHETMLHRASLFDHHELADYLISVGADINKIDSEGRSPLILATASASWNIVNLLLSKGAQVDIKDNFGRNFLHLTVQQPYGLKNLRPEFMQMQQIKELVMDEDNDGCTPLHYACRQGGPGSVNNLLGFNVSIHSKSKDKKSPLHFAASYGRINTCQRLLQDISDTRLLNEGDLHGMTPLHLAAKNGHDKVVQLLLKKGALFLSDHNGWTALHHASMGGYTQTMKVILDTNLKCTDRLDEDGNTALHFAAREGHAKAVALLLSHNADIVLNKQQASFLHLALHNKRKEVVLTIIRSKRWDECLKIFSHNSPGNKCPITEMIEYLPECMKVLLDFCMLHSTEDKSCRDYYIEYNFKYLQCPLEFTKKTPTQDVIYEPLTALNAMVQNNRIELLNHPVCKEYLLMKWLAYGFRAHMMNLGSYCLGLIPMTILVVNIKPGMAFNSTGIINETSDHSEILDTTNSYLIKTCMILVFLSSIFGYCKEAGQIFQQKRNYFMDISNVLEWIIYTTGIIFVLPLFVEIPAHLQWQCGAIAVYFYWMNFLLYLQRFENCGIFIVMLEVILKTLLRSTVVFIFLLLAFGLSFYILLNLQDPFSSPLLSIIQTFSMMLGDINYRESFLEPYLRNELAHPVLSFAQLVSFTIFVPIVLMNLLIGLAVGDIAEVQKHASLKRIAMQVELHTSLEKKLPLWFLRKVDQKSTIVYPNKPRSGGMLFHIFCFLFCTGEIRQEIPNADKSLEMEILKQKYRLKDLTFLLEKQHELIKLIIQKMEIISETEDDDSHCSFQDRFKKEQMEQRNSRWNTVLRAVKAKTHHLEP

Q: Which IC50 [1] does the source give for CC(=C\c1ccc(Cl)cc1)/C(C)=N/O [AP18] here?
A: 4.5 µM

Q: For O=C/C=C/c1ccccc1 [cinnamaldehyde], which EC50 [2] is on record?
A: 15.9 µM

Q: With CC(C)C[C@H](CN)CC(=O)O [pregabalin] as the molecule, how does the “effect on SNL mechanical hypersensitivity vs vehicle” value [3] read?
A: significant attenuation

Q: What about the “percent reversal of SNL-induced mechanical hypersensitivity” value [3] of the same molecule?
A: 56%
